Several values for one entry are separate records, joined by “and”; a condition that tells them apart may be missing. Equal entries are not always repeated.
How the values were obtained:
[1] = Toxic effect in mice with Krebs-2 carcinoma (body weight, liver and spleen indices); type: in vivo; conditions: for Weight of an individual with ascites / Weight of an individual without ascites: individual animals, mice with Krebs-2; for organ index, Liver (group mean) / organ index, Spleen (group mean): mice with Krebs-2 carcinoma
Excerpt: We also studied the effect of topotecan, compound 7, and their combinations on changes in body weight of mice with LLC from days 1 to 18 after tumor transplantation and of mice with Krebs-2 carcinoma from days 1 to 8.
In addition, at the end of the experiments, we removed and weighed the liver and spleen, and calculated the liver and spleen indices.
The toxic effects of the substances were inferred from the changes in body weight during the experiment (the mice with LLC were weighed on days 1, 3, 5, 7, 10, 12, 14, 16, and 18 after grafting) and the liver and spleen weight indices at the end of the experiment.

[2] = Leukocyte and erythrocyte counts in peripheral blood of mice with Krebs-2 carcinoma; type: in vivo
Experimental: We also counted leukocytes and erythrocytes in mice with Krebs-2 carcinoma. […] An increase in white blood cell count in the peripheral blood is associated with the inflammatory process that develops during tumor formation and growth. […] It should be noted that topotecan at the dose of 1 mg/kg was not hemotoxic and partly normalized the concentrations of leukocytes and erythrocytes, apparently due to its antitumor effect. Treatment of mice with only compound 7, regardless of the route of administration, reduced the number of leukocytes somewhat more effectively than the drugs listed above, but the decrease was significant only in comparison with the control without treatment.
White and red blood cell counts were determined using a Goryaev chamber using a BIOSCOP-1 microscope (LOMO-MA, St. Petersburg, Russia).

[3] = tested on: Krebs-2 ascitic carcinoma; test: Antitumor effect in the Krebs-2 ascitic carcinoma model; type: in vivo, mice; conditions: for average ascites weight: C57BL mice with Krebs-2, single dose on day 4; for average ascites weight / Average number of tumor cells in ascites: mean ± SD; for Ascites weight / Total number of tumor cells / Tumor cell concentration: individual animals; for Ascites weight / Total number of tumor cells / Tumor cell concentration / Average number of tumor cells in ascites: mice with Krebs-2
Excerpt: The Krebs-2 cancer cell line was obtained from the cell depository of the Institute of Cytology and Genetics SB RAS (Novosibirsk, Russia), and is maintained in mice as a transplanted tumor. Krebs-2 carcinoma is nonspecific to the different genetic constitutions of mice and is weakly immunogenic for mice of all strains. The biological source of Krebs-2 is the epithelial cells of the abdominal wall of the mouse. With intraperitoneal transplantation of tumor cells, an ascitic form is formed.
The effect of the drugs was assessed by the weight of ascites and the number of tumor cells in it.
Strain-nonspecific Krebs-2 ascitic carcinoma was grafted to C57BL mice. Tumor cells were suspended in 0.9% NaCl prior to grafting and injected intraperitoneally (2 million cells per mouse, in 0.2 mL). An ascitic tumor develops after intraperitoneal inoculation, has low immunogenicity, and produces no metastasis during the experiment at the used dose of tumor cells.
The mice were also divided into groups of 6–7 individuals. Treatment was carried out once on the 4th day after tumor transplantation: • - Group 1—Intact control—mice of this group were inoculated with a tumor, receiving 0.2 mL of saline intraperitoneally; • - Group 2—DMSO-Tween-80—mice were injected once intragastrically with a probe 200 μL of a solution containing saline, Tween-80 (10%), and DMSO (15%); • - Group 3—DMSO-Tween-80—mice were injected once intraperitoneally with a solvent for 7; • - Group 4—Tpc (aqueous solution)—mice were injected once intraperitoneally with 200 µL of Tpc at a single dose of 1 mg/kg; • - Group 5—Tpc + 7 i/g—mice received Tpc once as described for groups 3 and 7 in the form of 200 µL of suspension in Tween-80-DMSO once intragastrically at a dose of 50 mg/kg; • - Group 6—Tpc + 7 i/p—mice were injected with topotecan once as described for groups 3 and 7 in the form of 200 µL of suspension Tween-80-DMSO once intraperitoneally at a dose of 50 mg/kg; • - Group 7—7 i/g—mice were injected with 7 as described for group 5; • - Group 8—7 i/p—mice were injected with 7 as described for group 6.
The ascitic tumor weight and the cancer cell concentration in the ascitic fluid (as counted with a Goryaev chamber) were evaluated at the end of the experiment to estimate the effects of the substances. To prepare the samples for cell counting with a Goryaev chamber, 10 μL of the ascitic fluid was combined with 400 μL of saline (a 40-fold dilution). Cells were counted in five large squares, each divided into 16 small squares (80 squares in total) at a low magnification.

[4] = 7 50 mg/kg i/g, alone or with Tpc 1 mg/kg i/p
[5] = Tpc 1 mg/kg i/p and/or 7 50 mg/kg i/p

| Compound | Weight of an individual with ascites [1, 5] | Weight of an individual without ascites [1, 5] | organ index, Liver (group mean) ([1]; Topotecan and/or 7 i/p) | organ index, Spleen (group mean) ([1]; Topotecan and/or 7 i/p) | Concentration of erythrocytes in peripheral blood [2, 5] | Concentration of leukocytes in peripheral blood [2, 5] | average ascites weight [3, 5] | Ascites weight [3, 5] | Total number of tumor cells [3, 5] | Tumor cell concentration [3, 5] | Average number of tumor cells in ascites [3, 5] | also measured |
| --- | --- | --- | --- | --- | --- | --- | --- | --- | --- | --- | --- | --- |
| C/C(NCCCc1cc(C(C)(C)C)c(O)c(C(C)(C)C)c1)=C1\C(=O)C=C2Oc3c(-c4csc(N/N=C/c5ccc(Br)cc5)n4)c(O)c(C)c(O)c3[C@@]2(C)C1=O [Compound 7, (4E)-10-{2-[(E)-2-[(4-bromophenyl)methylidene]hydrazin-1-yl]-1,3-thiazole-4-yl}-4-(1-{[3-(3,5-di-tret-butyl-4-hydroxyhenyl)propyl]amino}ethylidene)-11,13-dihydroxy-2,12-dimethyl-8-oxatricyclo [7.4.0.02,7]trideca-1(13),6,9,11-tetraen-3,5-dione] | 21.5 g and 22.2 g and 21.3 g and 22.1 g and 23.4 g and 24.9 g | 18.4 g and 19.8 g and 16.8 g and 16.6 g and 19.4 g and 18.2 g and 18.7 g | 4.1±0.3% | 1.0±0.1% | 7 ± 0.6 million/µL | 10.1 ± 0.9 thousand/µL | 4,1±1,4 g | 3.1 g and 2.4 g and 4.5 g and 5.5 g and 2.1 g and 5.2 g and 6.2 g | 204.6 million and 105.6 million and 234 million and 165 million and 44.1 million and 530.4 million and 576.6 million | 66 million/ml and 44 million/ml and 52 million/ml and 30 million/ml and 21 million/ml and 102 million/ml and 93 million/ml | 265,8±164,4 million | Weight of an individual with ascites [1, 4]: 24.5 g and 22.7 g and 21 g and 23.3 g; Weight of an individual without ascites [1, 4]: 19.9 g and 16.5 g and 16.4 g and 19.4 g and 18.8 g; organ index, Liver (group mean) ([1]; 7 i/g, alone or with Topotecan): 4.4±0.5%; organ index, Spleen (group mean) ([1]; 7 i/g, alone or with Topotecan): 1.2±0.1%; Concentration of erythrocytes in peripheral blood [2, 4]: 7.2 ± 0.6 million/µL; Concentration of leukocytes in peripheral blood [2, 4]: 10.7 ± 0.8 thousand/µL; average ascites weight [3, 4]: 5±0,5 g; Ascites weight [3, 4]: 4.6 g and 6.2 g and 5.1 g and 4.5 g; Total number of tumor cells [3, 4]: 372.6 million and 403 million and 230 million and 209.1 million and 162 million; Tumor cell concentration [3, 4]: 81 million/ml and 65 million/ml and 50 million/ml and 41 million/ml and 36 million/ml; Average number of tumor cells in ascites [3, 4]: 275,3±90 million |
| CC[C@@]1(O)C(=O)OCc2c1cc1n(c2=O)Cc2cc3c(CN(C)C)c(O)ccc3nc2-1 [Tpc, topotecan] | 21 g and 23.5 g and 23.4 g and 21.2 g and 22.9 g and 21.4 g and 21.9 g | 18.7 g and 17.9 g and 19.9 g and 19.2 g and 20 g and 19 g and 19.5 g | 4.8±0.6% | 1.3±0.2% | 7.6 ± 0.4 million/µL | 11.2 ± 0.7 thousand/µL | 3±0,9 g | 2.3 g and 5.6 g and 3.5 g and 2 g and 2.9 g and 2.4 g | 218.5 million and 459.2 million and 266 million and 182 million and 188.5 million and 120 million and 148.8 million | 95 million/ml and 82 million/ml and 76 million/ml and 91 million/ml and 65 million/ml and 50 million/ml and 62 million/ml | 226,1±78 million | hemotoxicity (in words) ([2]; dose of 1 mg/kg): not hemotoxic |
